Data: US20120159656A1, “COMPOSITIONS AND METHODS FOR […] DEFECTS” (Galenea Corp., priority 2009, published 2012)
Entries after “also recorded” stand apart in the source; their conditions may differ.

Assays:
[1] = test system: gamma oscillations recorded from prefrontal cortex (PFC); experiment: Continuous EEG recording from PFC of well-habituated mice, maximal gamma power (30-90 Hz); settings: PCP 5 mg/kg
[2] = test system: high-power gamma oscillations in the PFC; experiment: EEG recording from PFC in absence and presence of novel objects before and after PCP; assay type: in vivo, mouse; settings: PCP 5 mg/kg intraperitoneal, gamma 30-90 Hz
Experimental: Real-time monitoring of EEGs and single-unit activity (SUA) from PFC was performed via surgical implantation of 8-microwire bundle electrodes (FIG. 5A, B). […] Recordings were made using commercially available multichannel hardware (Multichannel Systems, Reutlingen, Germany). The system is capable of monitoring EEGs and SUA from PFC in freely behaving mice (FIG. 5C) and this neural activity has been characterized (FIG. 5D).
In another series of experiments, the EEG recording techniques were determined to be sensitive enough to detect pharmacologically-induced perturbations in neural activity in vivo. For these studies EEGs from PFC were measured when mice were in the absence and presence of novel environmental stimuli. To determine whether EEGs recorded from PFC are sensitive to a pharmacologic manipulation known to impair cognitive function, animals were injected intraperitoneally with PCP (5 mg/kg) and EEGs were recorded in the absence and presence of novel environmental stimuli. This experiment confirmed that high-power gamma oscillations in the PFC were elicited while animals attend to novel stimuli in the environment (FIG. 10A). […] These observations confirm that the techniques for monitoring EEGs and SUA in the PFC of freely behaving mice are sensitive enough to detect treatments known to inhibit cognition.

[3] = test system: EEG power in the PFC; experiment: Spectral analysis of PFC EEG by frequency band (area under the curve) in a familiar environment; assay type: in vivo, mouse
Experimental: Surgery, Animal handling and EEG recording were performed according to the methods disclosed herein (See, e.g., Examples 1-5). Recordings in a novel environment were made upon an animal's first exposure to the recording chamber. Animals were exposed to the recording chamber an additional 3 times (15 min each) to record EEGs from a familiar environment (fourth exposure).
EEG analysis. EEGs were analyzed using an automated FFT-periodogram function with Hamming windows in the Matlab analysis suite (pwelch function, The Mathworks, Inc., Natick MA). EEGs were analyzed in 10 sec intervals and power spectral analyses were computed for each 10 sec interval by averaging 1 sec power spectra with a 0.5 sec overlap across the entire 10 sec. Power across a given frequency band was determined by computing the area under the curve for various frequency bands (Theta: 4-12 Hz; GammaLow: 30-55 Hz; GammaHi: 65-90 Hz; Ripple: 100-300 Hz). Measures of power for each animal were binned and a frequency histogram representing number of events (10 sec each) observed at each power was computed. Frequency histograms across a given genotype were averaged to derive the final EEG power histogram for each frequency band.
To investigate the disease relevance of this intermediate power phenotype, EEGs were recorded from normal control animals in a familiar environment before and after they were treated with the psychotomimetic compound, phencyclidine (PCP) (5 mg/kg, IP).

[4] = control animals, PCP 5 mg/kg IP

c1ccc(C2(N3CCCCC3)CCCCC2)cc1 [PCP, phencyclidine]
distribution of the power of gamma oscillations ([1]; familiar environment, normal mice): unimodal distribution of gamma oscillations with “Intermediate” power | gamma oscillation power after injection ([1]; well-habituated animals, gamma 30-90 Hz): 4 μV^2/Hz | expression of high-power gamma oscillations during novel object presentation [2]: completely blocked the expression of high-power gamma oscillations; also recorded: lack of a bimodal distribution in gamma oscillation power | average power in the GammaHi frequency band (65-90 Hz) ([3]; control animals treated with PCP 5 mg/kg IP, n=5): 19.12±0.11 | effect on power in the GammaHi frequency band (65-90 Hz) [3, 4]: significant increase in the number of high-powered events; also recorded: increased the average spectral power | effect on power in the GammaLow frequency band (30-55 Hz) [3, 4]: significantly more high-powered GammaLow events; also recorded: increased the average spectral power | effect on power in the Ripple frequency band (100-300 Hz) [3, 4]: no significant differences in power; also recorded: no effect | effect on power in the Theta frequency band (4-12 Hz) [3, 4]: significant increase; also recorded: increased the average spectral power
